What was measured:
[1] = test system: SPR (Spiky Rotating Cells); assay: Treatment of patients with SPR infection; format: in vivo, human; conditions: oral treatment of patients
Source text: My discovery of the novel SPR organism also provides for the treatment of SPR infections in male and female patients. The method involves first diagnosing the SPR infection, and then, upon obtaining a positive diagnosis, administering to the patient an SPR-inhibiting amount of an anti-SPR agent selected from the group consisting of itraconazole, ofloxacin, metronidazole.
One such drug is itraconazole, sold under the trade name SPORANOX®, available from Jansen Pharmaceuticals. The patient ingests one 200 mg tablet per day for three-four weeks.
The patient takes 500 mg twice per day for six weeks.
Yet another drug that is effective in treating SPR infection is ofloxacin, sold under the trade name FLOXIN®. The patient takes 400 mg twice per day for two weeks.

[2] = cited from earlier work
Chlamydia = conditions: single dose (Martin); cited from earlier work
Ureaplasma = conditions: Stamm and colleagues; cited from earlier work

| Structure (SMILES) | effectiveness in treating infection with SPR [1] | clinical efficacy in refractory cases ([2]; refractory cases, smaller series (Toth)) | efficacy in uncomplicated chlamydial urethritis compared with Doxycycline (Chlamydia) | cases of NGU cured ([2]; Stamm and colleagues) [%] | overall effectiveness in NGU compared with Doxycycline ([2]; Stamm and colleagues) | Ureaplasma cases that responded (Ureaplasma) [%] |
| --- | --- | --- | --- | --- | --- | --- |
| Cc1ncc([N+](=O)[O-])n1CCO [metronidazole] | can be used to treat SPR infection | good clinical efficacy |  |  |  |  |
| CC[C@H]1OC(=O)[C@H](C)[C@@H](O[C@H]2C[C@@](C)(OC)[C@@H](O)[C@H](C)O2)[C@H](C)[C@@H](O[C@@H]2O[C@H](C)C[C@H](N(C)C)[C@H]2O)[C@](C)(O)C[C@@H](C)CN(C)[C@H](C)[C@@H](O)[C@]1(C)O [Azithromycin] |  |  | comparable to Doxycycline | 78 | overall as effective as Doxycyline | 47 |
